Reference: US12495798B2, “Nicotinamide compound and herbicidal composition comprising compound” (KOREA RESEARCH INSTITUTE OF CHEMICAL TECHNOLOGY, priority 2019, dated 2025)

Key:
Type in all cases: in vivo
soybean = assay: Phytotoxicity test for field crops (soil treatment test); parameters: key: 0 (no harm); 9 (complete withered)
Summary of the method: (§1)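 Pre-emergence soil spray one day after sowing in sterilized horticultural soil (pH 6.1, organic matter 1.0%), test compounds diluted in 33% acetone/0.1% Tween-20 to 19˜300 g a.i./ha. Greenhouse at 30±5° C, 14/10 h light/dark. Phytotoxicity scored visually 10 and 20 days after treatment on a 0 (no harm) to 9 (complete withered) scale versus untreated control.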

cotton = assay: as above; parameters: key: 0 (no harm); 9 (complete withered)
Summary of the method: as §1

wheat = assay: as above; parameters: key: 0 (no harm); 9 (complete withered)
Summary of the method: as §1

corn = assay: as above; parameters: key: 0 (no harm); 9 (complete withered)
Summary of the method: as §1

rice = assay: as above; parameters: key: 0 (no harm); 9 (complete withered)
Summary of the method: as §1

crabgrass [1] = assay: Herbicidal activity test against upland field weeds (foliar treatment test); details: Digitaria sanguinalis, scale 0-100; for pest or weed control at 50 g/ha: 50 g ai/ha
Summary of the method: (§2)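 Greenhouse-grown plants (30±5 °C, 14/10 h light/dark) foliar hand-sprayed with compound in 50% acetone, 0.1% Tween-20 at 50 or 75 g a.i./ha. Control visually scored 0 (none) to 100 (complete) versus untreated after 14 days, or 21 days if needed.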

fall panicum [2] = assay: as above; details: Panicum dichotomiflorum, scale 0-100; for pest or weed control at 50 g/ha: 50 g ai/ha
Summary of the method: as §2

black nightshade = assay: as above; parameters: key to Foliar treatment herbicidal activity, black nightshade: 0 (no control); 100 (complete control); details: scale 0-100
Summary of the method: as §2

quack grass = assay: as above; parameters: key to Foliar treatment herbicidal activity, quack grass: 0 (no control); 100 (complete control); details: scale 0-100
Summary of the method: as §2

crabgrass [3] = assay: Herbicidal activity test against upland field weeds (soil treatment test); parameters: key to Soil treatment herbicidal activity, Crabgrass: 0 (no control); 100 (complete control); details: scale 0 (no control) to 100 (complete control)
Summary of the method: (§3)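 Pre-emergence soil surface spray, day after sowing, into sandy loam pots with fertilizer; compounds at 50 or 75 g a.i./ha in 50% acetone, 0.1% Tween-20. Greenhouse at 30±5 °C, 14/10 h light/dark; visual control rated 0–100 against untreated after 14 days (21 if needed).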

cocklebur = assay: as above; parameters: key to Soil treatment herbicidal activity, Cocklebur: 0 (no control); 100 (complete control); details: scale 0 (no control) to 100 (complete control); for Soil treatment herbicidal activity, Cocklebur / pest or weed control at 50 g/ha: 50 g ai/ha
Summary of the method: as §3

fall panicum [4] = assay: as above; parameters: key to Soil treatment herbicidal activity, Fall panicum: 0 (no control); 100 (complete control); details: scale 0 (no control) to 100 (complete control); for pest or weed control at 50 g/ha: Panicum dichotomiflorum
Summary of the method: as §3

velvetleaf = assay: Herbicidal activity test against upland field weeds (foliar treatment test); parameters: key to Foliar treatment herbicidal activity, velvet leaf: 0 (no control); 100 (complete control); details: for Foliar treatment herbicidal activity, velvet leaf / pest or weed control at 50 g/ha: 50 g ai/ha; for Foliar treatment herbicidal activity, velvet leaf: scale 0-100
Summary of the method: as §2

[5] = 50 g ai/ha, Soybean (10 days after treatment)
[6] = 100 g ai/ha, Soybean (10 days after treatment)
[7] = 100 g ai/ha, Soybean (20 days after treatment)
[8] = 50 g ai/ha, Cotton (10 days after treatment)
[9] = 50 g ai/ha, Cotton (20 days after treatment)
[10] = 100 g ai/ha, Cotton (10 days after treatment)
[11] = 100 g ai/ha, Cotton (20 days after treatment)
[12] = 50 g ai/ha, Wheat (10 days after treatment)
[13] = 50 g ai/ha, Wheat (20 days after treatment)
[14] = 100 g ai/ha, Wheat (10 days after treatment)
[15] = 100 g ai/ha, Wheat (20 days after treatment)
[16] = 50 g ai/ha, Corn (10 days after treatment)
[17] = 50 g ai/ha, Corn (20 days after treatment)
[18] = 100 g ai/ha, Corn (10 days after treatment)
[19] = 100 g ai/ha, Corn (20 days after treatment)
[20] = 50 g ai/ha, Rice (10 days after treatment)
[21] = 50 g ai/ha, Rice (20 days after treatment)
[22] = 100 g ai/ha, Rice (10 days after treatment)
[23] = 100 g ai/ha, Rice (20 days after treatment)
[24] = Digitaria sanguinalis, 50 g ai/ha
[25] = 50 g ai/ha, Soybean (20 days after treatment)
[26] = Abutilon theophrasti, scale 0-100, read-out: Foliar treatment herbicidal activity, velvet leaf

Compound: Cn1nnnc1COCc1nc(C(F)(F)F)ccc1C(=O)Nc1nnnn1C [Compound No. 1-61, N-(1-methyl-1H-tetrazol-5-yl)-2-(((1-methyl-1H-tetrazol-5-yl)methoxy)methyl)-6-(trifluoromethyl)nicotinamide]
- Soil treatment phytotoxicity, Soybean (soybean; [5]): 0
- Soil treatment phytotoxicity, Soybean (soybean; [6]): 3
- Soil treatment phytotoxicity, Soybean (soybean; [7]): 6
- Soil treatment phytotoxicity, Cotton (cotton; [8]): 1
- Soil treatment phytotoxicity, Cotton (cotton; [9]): 1
- Soil treatment phytotoxicity, Cotton (cotton; [10]): 2
- Soil treatment phytotoxicity, Cotton (cotton; [11]): 2
- Soil treatment phytotoxicity, Wheat (wheat; [12]): 0
- Soil treatment phytotoxicity, Wheat (wheat; [13]): 0
- Soil treatment phytotoxicity, Wheat (wheat; [14]): 0
- Soil treatment phytotoxicity, Wheat (wheat; [15]): 0
- Soil treatment phytotoxicity, Corn (corn; [16]): 0
- Soil treatment phytotoxicity, Corn (corn; [17]): 0
- Soil treatment phytotoxicity, Corn (corn; [18]): 0
- Soil treatment phytotoxicity, Corn (corn; [19]): 0
- Soil treatment phytotoxicity, Rice (rice; [20]): 0
- Soil treatment phytotoxicity, Rice (rice; [21]): 1
- Soil treatment phytotoxicity, Rice (rice; [22]): 1
- Soil treatment phytotoxicity, Rice (rice; [23]): 6
- pest or weed control at 50 g/ha (crabgrass [1]): 95%
- pest or weed control at 50 g/ha (fall panicum [2]): 70%
- Foliar treatment herbicidal activity, black nightshade (black nightshade; 50 g ai/ha): 100
- Foliar treatment herbicidal activity, quack grass (quack grass; 50 g ai/ha): 0
- pest or weed control at 50 g/ha (crabgrass [3]; [24]): 40%
- Soil treatment herbicidal activity, Cocklebur (cocklebur): 0
- pest or weed control at 50 g/ha (fall panicum [4]; 50 g ai/ha): 95%
- Foliar treatment herbicidal activity, velvet leaf (velvetleaf): 100

Compound: Cn1ncnc1COCc1nc(C(F)(F)F)ccc1C(=O)Nc1nnnn1C [Compound No. 1-102, 2-(((1-methyl-1H-1,2,4-triazol-5-yl)methoxy)methyl)-N-(1-methyl-1H-tetrazol-5-yl)-6-(trifluoromethyl)nicotinamide]
- Soil treatment phytotoxicity, Soybean (soybean; [5]): 0
- Soil treatment phytotoxicity, Soybean (soybean; [25]): 0
- Soil treatment phytotoxicity, Soybean (soybean; [6]): 0
- Soil treatment phytotoxicity, Soybean (soybean; [7]): 0
- Soil treatment phytotoxicity, Cotton (cotton; [8]): 0
- Soil treatment phytotoxicity, Cotton (cotton; [9]): 0
- Soil treatment phytotoxicity, Cotton (cotton; [10]): 1
- Soil treatment phytotoxicity, Cotton (cotton; [11]): 2
- Soil treatment phytotoxicity, Wheat (wheat; [12]): 0
- Soil treatment phytotoxicity, Wheat (wheat; [14]): 0
- Soil treatment phytotoxicity, Wheat (wheat; [15]): 0
- Soil treatment phytotoxicity, Corn (corn; [16]): 0
- Soil treatment phytotoxicity, Corn (corn; [17]): 0
- Soil treatment phytotoxicity, Corn (corn; [18]): 0
- Soil treatment phytotoxicity, Corn (corn; [19]): 0
- Soil treatment phytotoxicity, Rice (rice; [20]): 5
- Soil treatment phytotoxicity, Rice (rice; [21]): 5
- Soil treatment phytotoxicity, Rice (rice; [22]): 5
- Soil treatment phytotoxicity, Rice (rice; [23]): 6
- pest or weed control at 50 g/ha (crabgrass [1]): 70%
- pest or weed control at 50 g/ha (fall panicum [2]): 70%
- pest or weed control at 50 g/ha (black nightshade; Solanum nigrum, 50 g ai/ha): 95%
- Foliar treatment herbicidal activity, quack grass (quack grass; 50 g ai/ha): 0
- pest or weed control at 50 g/ha (crabgrass [3]; [24]): 20%
- Soil treatment herbicidal activity, Cocklebur (cocklebur): 0
- pest or weed control at 50 g/ha (fall panicum [4]; 50 g ai/ha): 70%
- pest or weed control at 50 g/ha (velvetleaf; [26]): 80%

Compound: CN(Cc1nnn(C)n1)c1nc(C(F)(F)F)ccc1C(=O)Nc1nnnn1C [Compound No. 2-26, 2-(methyl((2-methyl-2H-tetrazol-5-yl)methyl)amino)-N-(1-methyl-1H-tetrazol-5-yl)-6-(trifluoromethyl)nicotinamide]
- Soil treatment phytotoxicity, Soybean (soybean; [5]): 6
- Soil treatment phytotoxicity, Soybean (soybean; [25]): 4
- Soil treatment phytotoxicity, Soybean (soybean; [6]): 7
- Soil treatment phytotoxicity, Soybean (soybean; [7]): 7
- Soil treatment phytotoxicity, Cotton (cotton; [8]): 1
- Soil treatment phytotoxicity, Cotton (cotton; [9]): 4
- Soil treatment phytotoxicity, Cotton (cotton; [10]): 1
- Soil treatment phytotoxicity, Cotton (cotton; [11]): 4
- Soil treatment phytotoxicity, Wheat (wheat; [12]): 0
- Soil treatment phytotoxicity, Wheat (wheat; [13]): 0
- Soil treatment phytotoxicity, Wheat (wheat; [14]): 0
- Soil treatment phytotoxicity, Wheat (wheat; [15]): 0
- Soil treatment phytotoxicity, Corn (corn; [16]): 0
- Soil treatment phytotoxicity, Corn (corn; [17]): 0
- Soil treatment phytotoxicity, Corn (corn; [18]): 0
- Soil treatment phytotoxicity, Corn (corn; [19]): 0
- Soil treatment phytotoxicity, Rice (rice; [20]): 3
- Soil treatment phytotoxicity, Rice (rice; [21]): 9
- Soil treatment phytotoxicity, Rice (rice; [22]): 6
- Soil treatment phytotoxicity, Rice (rice; [23]): 9
- pest or weed control at 75 g/ha (crabgrass [1]; 75 g ai/ha): 95%
- pest or weed control at 75 g/ha (fall panicum [2]; 75 g ai/ha): 70%
- Foliar treatment herbicidal activity, black nightshade (black nightshade; 75 g ai/ha): 100
- Foliar treatment herbicidal activity, quack grass (quack grass; 75 g ai/ha): 0
- pest or weed control at 75 g/ha (crabgrass [3]; Digitaria sanguinalis, 75 g ai/ha): 98%
- pest or weed control at 75 g/ha (cocklebur; Xanthium strumarium, 75 g ai/ha): 98%
- Soil treatment herbicidal activity, Fall panicum (fall panicum [4]; 75 g ai/ha): 100
- pest or weed control at 75 g/ha (velvetleaf; Abutilon theophrasti, 75 g ai/ha, scale 0-100, read-out: Foliar treatment herbicidal activity, velvet leaf): 98%

Compound: CON(Cc1nnn(C)n1)c1nc(C(F)(F)F)ccc1C(=O)Nc1nnnn1C [Compound No. 2-30, 2-(methoxy((2-methyl-2H-tetrazol-5-yl)methyl)amino)-N-(1-methyl-1H-tetrazol-5-yl)-6-(trifluoromethyl)nicotinamide]
- Soil treatment phytotoxicity, Soybean (soybean; [5]): 7
- Soil treatment phytotoxicity, Soybean (soybean; [25]): 7
- Soil treatment phytotoxicity, Soybean (soybean; [6]): 7
- Soil treatment phytotoxicity, Soybean (soybean; [7]): 7
- Soil treatment phytotoxicity, Cotton (cotton; [8]): 2
- Soil treatment phytotoxicity, Cotton (cotton; [9]): 9
- Soil treatment phytotoxicity, Cotton (cotton; [10]): 2
- Soil treatment phytotoxicity, Cotton (cotton; [11]): 9
- Soil treatment phytotoxicity, Wheat (wheat; [12]): 0
- Soil treatment phytotoxicity, Wheat (wheat; [13]): 1
- Soil treatment phytotoxicity, Wheat (wheat; [14]): 0
- Soil treatment phytotoxicity, Wheat (wheat; [15]): 1
- Soil treatment phytotoxicity, Corn (corn; [16]): 0
- Soil treatment phytotoxicity, Corn (corn; [17]): 0
- Soil treatment phytotoxicity, Corn (corn; [18]): 0
- Soil treatment phytotoxicity, Corn (corn; [19]): 0
- Soil treatment phytotoxicity, Rice (rice; [20]): 4
- Soil treatment phytotoxicity, Rice (rice; [21]): 9
- Soil treatment phytotoxicity, Rice (rice; [22]): 6
- Soil treatment phytotoxicity, Rice (rice; [23]): 9
- pest or weed control at 50 g/ha (crabgrass [1]): 95%
- pest or weed control at 50 g/ha (fall panicum [2]): 60%
- Foliar treatment herbicidal activity, black nightshade (black nightshade; 50 g ai/ha): 100
- Foliar treatment herbicidal activity, quack grass (quack grass; 50 g ai/ha): 0
- Soil treatment herbicidal activity, Crabgrass (crabgrass [3]; 50 g ai/ha): 100
- pest or weed control at 50 g/ha (cocklebur; Xanthium strumarium): 90%
- Soil treatment herbicidal activity, Fall panicum (fall panicum [4]; 50 g ai/ha): 100
- Foliar treatment herbicidal activity, velvet leaf (velvetleaf): 100

Compound: Cn1nnc(COCc2nc(C(F)(F)F)ccc2C(=O)Nc2nnnn2C)n1 [Compound No. 2-59, N-(1-methyl-1H-tetrazol-5-yl)-2-(((2-methyl-2H-tetrazol-5-yl)methoxy)methyl)-6-(trifluoromethyl)nicotinamide]
- Soil treatment phytotoxicity, Soybean (soybean; [5]): 2
- Soil treatment phytotoxicity, Soybean (soybean; [25]): 5
- Soil treatment phytotoxicity, Soybean (soybean; [6]): 3
- Soil treatment phytotoxicity, Soybean (soybean; [7]): 6
- Soil treatment phytotoxicity, Cotton (cotton; [8]): 1
- Soil treatment phytotoxicity, Cotton (cotton; [9]): 6
- Soil treatment phytotoxicity, Cotton (cotton; [10]): 3
- Soil treatment phytotoxicity, Cotton (cotton; [11]): 9
- Soil treatment phytotoxicity, Wheat (wheat; [12]): 0
- Soil treatment phytotoxicity, Wheat (wheat; [13]): 0
- Soil treatment phytotoxicity, Wheat (wheat; [14]): 0
- Soil treatment phytotoxicity, Wheat (wheat; [15]): 0
- Soil treatment phytotoxicity, Corn (corn; [16]): 0
- Soil treatment phytotoxicity, Corn (corn; [17]): 0
- Soil treatment phytotoxicity, Corn (corn; [18]): 0
- Soil treatment phytotoxicity, Corn (corn; [19]): 0
- Soil treatment phytotoxicity, Rice (rice; [20]): 6
- Soil treatment phytotoxicity, Rice (rice; [21]): 8
- Soil treatment phytotoxicity, Rice (rice; [22]): 8
- Soil treatment phytotoxicity, Rice (rice; [23]): 8
- pest or weed control at 50 g/ha (crabgrass [1]): 98%
- pest or weed control at 50 g/ha (fall panicum [2]): 95%
- Foliar treatment herbicidal activity, black nightshade (black nightshade; 50 g ai/ha): 100
- Foliar treatment herbicidal activity, quack grass (quack grass; 50 g ai/ha): 0
- pest or weed control at 50 g/ha (crabgrass [3]; [24]): 98%
- pest or weed control at 50 g/ha (cocklebur; Xanthium strumarium): 20%
- Soil treatment herbicidal activity, Fall panicum (fall panicum [4]; 50 g ai/ha): 100
- pest or weed control at 50 g/ha (velvetleaf; [26]): 98%
